Measurements reported in patent US10428044B2, “3-amino-1,5,6,7-tetrahydro-4H-indol-4-ones” (Bayer Pharma Aktiengesellschaft, priority 2014, dated 2019).
Several values for one entry are separate records, joined by “and”; a condition that tells them apart may be missing. Equal values may be shown once.

What follows are compounds tested against (recombinant) catalytic domain of human Bub1 (amino acids 704-1085) (Homo sapiens (Human), UniProt O43683) (assay: Bub1 kinase assay (TR-FRET)). Conditions: ATP 10 μM final, peptide substrate 1 μM final, 60 min at 22° C., read-out: Biological Assay: Bub1 kinase assay median IC50.
(recombinant) catalytic domain of human Bub1 (amino acids 704-1085), sequence (O43683 704-1085): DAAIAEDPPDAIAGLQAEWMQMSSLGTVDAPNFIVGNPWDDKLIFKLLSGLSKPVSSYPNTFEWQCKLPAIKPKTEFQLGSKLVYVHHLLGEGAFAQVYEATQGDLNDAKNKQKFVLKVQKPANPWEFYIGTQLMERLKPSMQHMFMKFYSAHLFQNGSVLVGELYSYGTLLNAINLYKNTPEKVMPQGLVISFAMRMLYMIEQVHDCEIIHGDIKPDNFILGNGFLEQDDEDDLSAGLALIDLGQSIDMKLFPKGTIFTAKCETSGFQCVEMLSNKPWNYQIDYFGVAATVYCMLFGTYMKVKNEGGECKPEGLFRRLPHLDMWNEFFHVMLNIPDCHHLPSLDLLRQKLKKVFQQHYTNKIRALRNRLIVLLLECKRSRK
Assay type: biochemical
How it was run: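 Readout was TR-FRET between a Eu-labeled antibody complex recognizing phosphoserine and streptavidin-XL665 on the biotinylated peptide, after EDTA stop and 1 h at 22° C. The kinase reaction ran for 60 min at 22° C. Values are means or medians of repeat tests, from 4-parameter fits normalized to enzyme-free and inhibitor-free controls.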

Row | IC50 | SMILES
1 | 292 nM | CCCNC(=S)Nc1cc(-c2[nH]c3c(c2Nc2ccccc2)C(=O)CCC3)ccn1 [Example 399, 1-{4-[4-oxo-3-(phenylamino)-4,5,6,7-tetrahydro-1H-indol-2-yl]pyridin-2-yl}-3-propylthiourea]
2 | 8.53 nM | C#CCOCC(=O)Nc1cc(-c2[nH]c3c(c2Nc2ccccc2)C(=O)CCC3)ccn1 [Example 336, N-{4-[4-oxo-3-(phenylamino)-4,5,6,7-tetrahydro-1H-indol-2-yl]pyridin-2-yl}-2-(prop-2-yn-1-yloxy)acetamide]
3 | 8.93 nM | CC(C)(C)n1cc(C(=O)Nc2cc(-c3[nH]c4c(c3Nc3ccccc3)C(=O)CCC4)ccn2)cn1 [Example 448, 1-tert-butyl-N-{4-[4-oxo-3-(phenylamino)-4,5,6,7-tetrahydro-1H-indol-2-yl]pyridin-2-yl}-1H-pyrazole-4-carboxamide]
4 | 221 nM | CC1(C)CC(=O)c2c([nH]c(-c3ccnc(NCC4CC4)c3)c2Nc2ccccc2)C1 [Example 509, 2-{2-[(cyclopropylmethyl)amino]pyridin-4-yl}-6,6-dimethyl-3-(phenylamino)-1,5,6,7-tetrahydro-4H-indol-4-one]
5 | 127 nM | CN1C(=O)CCC1C(=O)Nc1cc(-c2[nH]c3c(c2Nc2ccccc2)C(=O)CCC3)ccn1 (stereo not drawn) [Example 310, 1-methyl-5-oxo-N-{4-[4-oxo-3-(phenylamino)-4,5,6,7-tetrahydro-1H-indol-2-yl]pyridin-2-yl}-prolinamide]
6 | 524 nM | CCOC(C)(C)C(=O)Nc1cc(-c2[nH]c3c(c2Nc2ccccc2)C(=O)CCC3)ccn1 [Example 328]
7 | 6.42 nM | CC1(C)CC(=O)c2c([nH]c(-c3ccncc3OCC(F)F)c2Nc2ccccc2)C1 [Example 408, 2-[3-(2,2-difluoroethoxy)pyridin-4-yl]-6,6-dimethyl-3-(phenylamino)-1,5,6,7-tetrahydro-4H-indol-4-one]
8 | 6.68 nM | O=C(COCc1ccco1)Nc1cc(-c2[nH]c3c(c2Nc2ccccc2)C(=O)CCC3)ccn1 [Example 352, 2-(furan-2-ylmethoxy)-N-{4-[4-oxo-3-(phenylamino)-4,5,6,7-tetrahydro-1H-indol-2-yl]pyridin-2-yl}acetamide]
9 | > 20000 nM | CC1(C)CC(=O)c2c([nH]c(-c3ccncc3)c2Nc2ccc(-c3ccccc3)cc2)C1 [Example 414, 3-(biphenyl-4-ylamino)-6,6-dimethyl-2-(pyridin-4-yl)-1,5,6,7-tetrahydro-4H-indol-4-one]
10 | 48.4 nM | O=C(Cc1cscn1)Nc1cc(-c2[nH]c3c(c2Nc2ccccc2)C(=O)CCC3)ccn1 [Example 287, N-{4-[4-oxo-3-(phenylamino)-4,5,6,7-tetrahydro-1H-indol-2-yl]pyridin-2-yl}-2-(1,3-thiazol-4-yl)acetamide]
11 | 238 nM | CN1CCCC1C(=O)Nc1cc(-c2[nH]c3c(c2Nc2ccccc2)C(=O)CCC3)ccn1 (stereo not drawn) [Example 309, 1-methyl-N-{4-[4-oxo-3-(phenylamino)-4,5,6,7-tetrahydro-1H-indol-2-yl]pyridin-2-yl}-prolinamide]

Continued, compound first:

Row | SMILES | IC50
12 | CCC(=O)Nc1cc(-c2[nH]c3c(c2Nc2ccccc2)C(=O)CCC3)ccn1 [Example 225, N-{4-[4-oxo-3-(phenylamino)-4,5,6,7-tetrahydro-1H-indol-2-yl]pyridin-2-yl}propanamide] | 26.7 nM
13 | CC(=O)Nc1cc(-c2[nH]c3c(c2Nc2cccc(F)c2)C(=O)CCC3)ccn1 [Example 40, N-(4-{3-[(3-fluorophenyl)amino]-4-oxo-4,5,6,7-tetrahydro-1H-indol-2-yl}pyridin-2-yl)acetamide] | 15.2 nM
14 | CC1(C)CC(=O)c2c([nH]c(-c3ccncc3)c2Nc2ccc([N+](=O)[O-])cc2)C1 [Example 90, 6,6-dimethyl-3-[(4-nitrophenyl)amino]-2-(pyridin-4-yl)-1,5,6,7-tetrahydro-4H-indol-4-one] | 509 nM
15 | CC1(C)CC(=O)c2c([nH]c(-c3ccncc3)c2Nc2cccc(-c3ccccc3)c2)C1 [Example 45, 3-(biphenyl-3-ylamino)-6,6-dimethyl-2-(pyridin-4-yl)-1,5,6,7-tetrahydro-4H-indol-4-one] | 20.8 nM
16 | CC(C)[C@H]1CC(=O)c2c([nH]c(-c3ccnc(N)c3)c2Nc2ccc(F)cc2)C1 (stereo in doubt) [Example 167, 2-(2-aminopyridin-4-yl)-3-[(4-fluorophenyl)amino]-6-(propan-2-yl)-1,5,6,7-tetrahydro-4H-indol-4-one] | 53.1 nM
17 | CC1(C)CC(=O)c2c([nH]c(-c3ccncc3)c2Nc2cccc(OCc3ccccc3)c2)C1 [Example 80, 3-{[3-(benzyloxy)phenyl]amino}-6,6-dimethyl-2-(pyridin-4-yl)-1,5,6,7-tetrahydro-4H-indol-4-one] | 188 nM
18 | CCCC(=O)Nc1cc(-c2[nH]c3c(c2Nc2ccccc2)C(=O)CCC3)ccn1 [Example 226, N-{4-[4-oxo-3-(phenylamino)-4,5,6,7-tetrahydro-1H-indol-2-yl]pyridin-2-yl}butanamide] | 20.4 nM
19 | O=C1CCCc2[nH]c(-c3ccncc3)c(Nc3cccc(F)c3)c21 [Example 41, 3-[(3-fluorophenyl)amino]-2-(pyridin-4-yl)-1,5,6,7-tetrahydro-4H-indol-4-one] | 11.1 nM
20 | O=C1CCCc2[nH]c(-c3ccnc(NC(=O)C4C[C@@H]4F)c3)c(Nc3ccccc3)c21 (mixture of isomers) [Example 249, rel-(R,S/S,R)-2-fluoro-N-{4-[4-oxo-3-(phenylamino)-4,5,6,7-tetrahydro-1H-indol-2-yl]pyridin-2-yl}cyclopropanecarboxamide] | 16.4 nM and 7.55 nM
21 | CC1(C)CC(=O)c2c([nH]c(-c3ccncc3)c2Nc2ccccc2-c2ccccc2)C1 [Example 160, 3-(biphenyl-2-ylamino)-6,6-dimethyl-2-(pyridin-4-yl)-1,5,6,7-tetrahydro-4H-indol-4-one] | 204 nM
22 | CCOc1ccccc1Nc1c(-c2ccncc2)[nH]c2c1C(=O)CC(C)(C)C2 [Example 128, 3-[(2-ethoxyphenyl)amino]-6,6-dimethyl-2-(pyridin-4-yl)-1,5,6,7-tetrahydro-4H-indol-4-one] | 576 nM
23 | CC1(C)CC(=O)c2c([nH]c(-c3ccncc3)c2Nc2cc(F)c(F)c(F)c2)C1 [Example 32, 6,6-dimethyl-2-(pyridin-4-yl)-3-[(3,4,5-trifluorophenyl)amino]-1,5,6,7-tetrahydro-4H-indol-4-one] | 15.7 nM
24 | O=C1CCCc2[nH]c(-c3cc(F)ncc3F)c(Nc3ccccc3)c21 [Example 218, 2-(2,5-difluoropyridin-4-yl)-3-(phenylamino)-1,5,6,7-tetrahydro-4H-indol-4-one] | 906 nM
25 | CC1(C)CC(=O)c2c([nH]c(-c3ccnc(N)n3)c2Nc2ccccc2)C1 [Example 223, 2-(2-aminopyrimidin-4-yl)-6,6-dimethyl-3-(phenylamino)-1,5,6,7-tetrahydro-4H-indol-4-one] | 40.5 nM
26 | Nc1cc(-c2[nH]c3c(c2Nc2ccc(F)cc2)C(=O)CCC3)ccn1 [Example 211, 2-(2-aminopyridin-4-yl)-3-[(4-fluorophenyl)amino]-1,5,6,7-tetrahydro-4H-indol-4-one] | 114 nM
27 | CC1(C)CC(=O)c2c([nH]c(-c3ccncc3)c2Nc2cccc(OC(F)(F)F)c2)C1 [Example 107, 6,6-dimethyl-2-(pyridin-4-yl)-3-{[3-(trifluoromethoxy)phenyl]amino}-1,5,6,7-tetrahydro-4H-indol-4-one] | 164 nM
